This is an account of results in US20250034601A1, “HETERODIMERIC BENZALDEHYDE SYNTHASE, METHODS OF PRODUCING, AND USES THEREOF” (Purdue Research Foundation, priority 2021, published 2025).

In experiment [1] the test system is pds-bsα-bsβ VIGS petunia flowers. Kind of experiment: Emission of volatiles from pds-bsα-bsβ VIGS petunia flowers. In kind it is in vivo, Petunia hybrida. As to conditions: 2-day-old VIGS flowers, volatiles collected 20:00 to 21:00, n=6. Here is the method:
Petunia hybrida cv. Mitchell diploid (W115, Ball Seed Co., Oxford, Canada) plants were grown under standard greenhouse condition with a light period from 6:00 to 21:00 hour. To link the simultaneous downregulation of PhBSα and PhBSβ6 genes via virus induced gene silencing (VIGS) to the silencing of a marker gene, a previously generated pTRV2-PDS construct containing a 300 bp fragment of Nicotiana benthamiana Phytoene Desaturase (PDS) (CDS nucleotides 580˜879; SEQ ID NO: 11) was used (deposited with the National Center for Biotechnology Information (NCBI) GenBank and having the accession number DQ469932.1 (accepted Dec. 4, 2007)). See Spitzer et al., Reverse genetics of floral scent: Application of tobacco rattle virus-based gene silencing in petunia, Plant Physiology 145: 1241-1250 (2007). The N. benthamiana PDS fragment shared 94.3% sequence identity with P. axillaris PDS gene.
Next, a 301 bp fragment of PhBSα (CDS nucleotides 3˜303 of SEQ ID NO: 3) and a 301 bp fragment of PhBSβ6 (CDS nucleotides 3˜303 of SEQ ID NO: 4) were tandemly cloned downstream of the PDS fragment in a pTRV2-PDS plasmid using ClonExpress II One Step Cloning Kit (Vazyme Biotech Co., Piscataway, NJ), yielding the final construct pTRV2-PDS-PhBSαp.
All binary vectors, including pTRV1, deposited with the NCBI GenBank and having accession number AF406990 (accepted Jun. 11, 2002), pTRV2-PDS and pTRV2-PDS-PhBSαp, were transformed into Agrobacterium tumefaciens strain GV3101. Single colonies for each construct were cultured at 28° C. in Luria-Bertani (LB) medium containing 50 mg/L rifampicin, 50 mg/L gentamycin, and 50 mg/L kanamycin to an optical density at a wavelength of 600 nm (OD600) of 2.4.
Cells were pelleted, washed with infiltration buffer (50 mM MES, pH 5.7, 2 mM Na3PO4, 0.5% glucose and 200 μM acetosyringone), and incubated in the same buffer for 2 hours at room temperature. Yoo et al., An alternative pathway contributes to phenylalanine biosynthesis in plants via a cytosolic tyrosine:phenylpyruvate aminotransferase, Nature Communications 4: 2833 (2013). […]
Petunia flower volatiles were collected by a closed-loop stripping method and analyzed by gas chromatography mass spectrometry (GC-MS) as described in Qian et al., Completion of the cytosolic post-chorismate phenylalanine biosynthetic pathway in plants, Nature Communications 10: 15 (2019), with minor modifications. […] The extracts were pooled together and concentrated to about 200 μL under a mild stream of nitrogen gas, and samples were analyzed on an Agilent 7890B-5977B gas chromatography mass spectrometry (GC-MS) system (Agilent Technologies, Inc., Santa Clara, CA) using an analytical method translated from an established method with the Agilent 6890N-5975B GC-MS system as previously described. […]

In experiment [2] the test system is benzaldehyde synthase (BS) activity in petunia flower crude protein extracts. The experiment is described as follows: BS activity in petunia flower crude protein extracts with different substrates and cofactors (GC-MS). In kind it is biochemical, Petunia hybrida. Particulars: substance supplied as cofactor with benzoyl-CoA or in place of benzoyl-CoA; 30 minutes at 28° C. Here is the method:
The crude protein extracts were obtained by extraction of petunia petal tissue with buffer A (3:1 [v/w] buffer/tissue). After centrifugation of slurry at 15,000 g for 20 minutes, the supernatant was desalted with Econo-Pac 10DG Columns (Bio-Rad, Hercules, CA) according to the manufacturer's protocol and 20 μL of desalted protein was used in the activity assays. The reaction was performed for 30 minutes at 28° C. and the product was extracted with 200 μL DCM containing 1 μg naphthalene (internal standard). After centrifugation at 15,000 g for 20 minutes, 2 μL of the bottom DCM phase was injected in GC-MS, with results shown in FIG. 3A. The compounds labeled in FIG. 3A with numbers are (1) benzaldehyde, (2) benzylalcohol, (3) internal standard (naphthalene), and (4) benzylbenzoate and the different assay mixtures described above are identified with their above-associated letters.

Experiment [3] relates to Petunia hybrida benzaldehyde synthase (PhBS), recombinant heterodimer PhBSα (SEQ ID NO: 1) / PhBSβ (SEQ ID NO: 2), wild type, MBP-tagged. The experiment is described as follows: Kinetic parameters of recombinant PhBS (BS activity assay, HPLC; benzoyl-CoA + NADPH to benzaldehyde). Particulars: measured at 4 mM NADPH. In kind it is biochemical. The method, then: (§1) The reaction was initiated by adding a protein and incubated at 28° C. for 30 minutes, and the reactions were then terminated by adding 100 μL of 100% ice-cold methanol (MeOH). The BS enzyme assays were performed at an appropriate enzyme concentration so that reaction velocity was proportional to enzyme concentration and linear during the incubation time period. Km and Vmax were determined by non-linear fit to the Michaelis-Menten equation using Graphpad Prism, v8.2.0.
(§2) Triplicate assays were performed for all data points.
(§3) After centrifugation at 15,000 g for 20 minutes, 5 μL of the supernatant were subjected to high-performance liquid chromatography (HPLC) analysis using an Agilent 1260 Infinity II system (Agilent Technologies, Inc., Santa Clara, CA) equipped with an InfinityLab Poroshell 120 EC-C18 column (3.0×150 mm, 2.7 μm) maintained at 35° C. Products were separated with a 15-minute linear gradient of 10% aqueous acetonitrile solution to 100% acetonitrile and monitored at 248 nm using a diode array detector (DAD). Benzaldehyde was identified by comparing the retention time and absorption spectrum with authentic standard.
(§4) Quantitation was achieved by using standard curve generated from authentic standard and product verification was performed by GC-MS. Namely, crude protein extracts were obtained by extraction of petunia petal tissue with buffer A (3:1 [v/w] buffer/tissue). […]

The test system of experiment [4] is Prunus dulcis (almond) benzaldehyde synthase (PdBS), recombinant heterodimer PdBSα (SEQ ID NO: 6) / PdBSβ (SEQ ID NO: 9), wild type, MBP-tagged. Kind of experiment: Kinetic parameters of recombinant PdBS (BS activity assay, HPLC; benzoyl-CoA + NADPH to benzaldehyde). In kind it is biochemical. As to conditions: measured at 4 mM NADPH. Here is the method: as §1, §2, §3
Quantitation was achieved by using standard curve generated from authentic standard and product verification was performed by GC-MS. Namely, crude protein extracts were obtained by extraction of petunia petal tissue with buffer A (3:1 [v/w] buffer/tissue). After centrifugation of slurry at 15,000 g for 20 minutes, the supernatant was desalted with Econo-Pac 10DG Columns (Bio-Rad Laboratories, Inc., Hercules, CA) according to the manufacturer's protocol and 20 μL of desalted protein was used in BS activity assays. The reaction was performed for 30 minutes at 28° C. and the product was extracted with 200 μL DCM containing 1 μg naphthalene (internal standard). After centrifugation at 15,000 g for 20 minutes, 2 μL of the bottom DCM phase was injected in GC-MS. […]

Experiment [5] addresses T1, Solanum lycopersicum (tomato) benzaldehyde synthase (SlBS), recombinant heterodimer SlBSα (SEQ ID NO: 7) / SlBSβ (SEQ ID NO: 10), wild type, MBP-tagged (Solanum lycopersicum, UniProt A0A3Q7HAN1+A0A3Q7ILR9).
T1 sequence (A0A3Q7ILR9 with tags, fused parts or gaps): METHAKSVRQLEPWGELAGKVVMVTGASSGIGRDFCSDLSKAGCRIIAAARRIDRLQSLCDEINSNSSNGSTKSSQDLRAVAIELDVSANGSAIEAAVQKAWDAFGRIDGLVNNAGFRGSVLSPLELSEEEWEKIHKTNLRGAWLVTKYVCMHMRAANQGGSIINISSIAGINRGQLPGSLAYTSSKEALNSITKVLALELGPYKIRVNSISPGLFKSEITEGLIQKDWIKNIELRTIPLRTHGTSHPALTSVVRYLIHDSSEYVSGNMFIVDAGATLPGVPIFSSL
T1 sequence (A0A3Q7HAN1 1-266): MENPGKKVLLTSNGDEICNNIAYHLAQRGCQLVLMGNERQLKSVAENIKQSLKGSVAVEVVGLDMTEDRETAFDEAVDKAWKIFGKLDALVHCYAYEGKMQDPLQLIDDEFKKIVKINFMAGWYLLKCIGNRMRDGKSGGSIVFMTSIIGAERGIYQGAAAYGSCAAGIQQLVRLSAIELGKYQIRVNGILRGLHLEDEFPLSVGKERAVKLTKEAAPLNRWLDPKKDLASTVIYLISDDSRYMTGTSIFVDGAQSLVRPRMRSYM
Kind of experiment: Kinetic parameters of recombinant SlBS (BS activity assay, HPLC; benzoyl-CoA + NADPH to benzaldehyde). As to conditions: measured at 4 mM NADPH; pH 6.5, 28° C. In kind it is biochemical. Here is the method: as §1, §2, §3, §4

The mark [6] stands for this setting: assuming one catalytic center per heterodimer of BS.

As to `O=Cc1ccccc1` [Benzaldehyde (D5, 111), Benzaldehyde], the “reduction of emission in pds-bsα-bsβ flowers relative to pds control” value in experiment [1] amounted to 68.3%.

In the case of `OCc1ccccc1` [Benzylalcohol (D5, 113), Benzylalcohol], the “reduction of emission in pds-bsα-bsβ flowers relative to pds control” value in experiment [1] amounted to 62.9%.

On to `NC(=O)c1ccc[n+]([C@@H]2O[C@H](COP(=O)([O-])OP(=O)(O)OC[C@H]3O[C@@H](n4cnc5c(N)ncnc54)[C@H](OP(=O)(O)O)[C@@H]3O)[C@@H](O)[C@H]2O)c1` [NADP^+], for which the “benzaldehyde formation by crude extracts” value in experiment [2] was “No benzaldehyde was formed”.

Regarding `NC(=O)c1ccc[n+]([C@@H]2O[C@H](COP(=O)([O-])OP(=O)(O)OC[C@H]3O[C@@H](n4cnc5c(N)ncnc54)[C@H](O)[C@@H]3O)[C@@H](O)[C@H]2O)c1` [NAD^+], the “benzaldehyde formation by crude extracts” value in experiment [2] is recorded as “No benzaldehyde was formed”.

With `O=CCc1ccccc1` [Phenylacetaldehyde (D7 + D8, 97 + 98), Phenylacetaldehyde], in experiment [1], the “reduction of emission in pds-bsα-bsβ flowers relative to pds control” value amounted to 41.2%.

Regarding `O=C(O)c1ccccc1` [benzoic acid], the “benzaldehyde formation by crude extracts” value in experiment [2] is on record as “No benzaldehyde was formed”.

In the case of `CC(C)(COP(=O)(O)OP(=O)(O)OC[C@H]1O[C@@H](n2cnc3c(N)ncnc32)[C@H](O)[C@@H]1OP(=O)(O)O)[C@@H](O)C(=O)NCCC(=O)NCCSC(=O)c1ccccc1` [benzoyl-CoA], the figures for the “kcat (benzoyl-CoA)” value in experiment [3] (setting [6]) and in experiment [4] (setting [6]) were 9.39 ± 0.40 s⁻¹ and 5.26 ± 0.20 s⁻¹, respectively. For the same molecule, the “Vmax (benzoyl-CoA)” value was determined as 63.5 ± 2.7 nKat/mg in experiment [3] (pH 6.5, 28° C.); 35.4 ± 1.3 nKat/mg in experiment [4] (pH 6.5, 28° C.); 13.2 ± 3.0 nKat/mg in experiment [5]. In addition, the Km in experiment [4] (read-out: Km for benzoyl-CoA, apparent, pH 6.5, 28° C.) came out at 629 ± 67.7 µM.

In the case of `O=C(OCc1ccccc1)c1ccccc1` [benzylbenzoate], the “reduction of emission in pds-bsα-bsβ flowers relative to pds control” value in experiment [1] is listed as 35.6%.

In the case of `O=C(O)C=Cc1ccccc1` [cinnamic acid], in experiment [2], the “benzaldehyde formation by crude extracts” value was “No benzaldehyde was formed”.

Regarding “nicotinamide adenine dinucleotide phosphate [NADPH]”, in experiment [2], the “benzaldehyde formation by crude extracts” value is “Efficient conversion of benzoyl-CoA to benzaldehyde”.
